Results taken from patent US20230398125A1, “TREATING HEPATITIS” (Albireo AB, priority 2022, published 2023).
Where two headings read alike, the source gives them in different places.

What was measured:
[1] = test system: HBV genotype C; experiment: Serum HBeAg in HBV-infected PXB mice; type: in vivo, hepatitis B virus; details: 10 mg/kg and 30 mg/kg, Day 14
Method: Target volume of blood was collected from all surviving animals under isoflurane anesthesia via the retro-orbital plexus/sinus using Intramedic™ Polyethylene Tubing at each time point. Two microliters (2 μL) from the collected blood were used for human albumin measurements. The remaining blood was centrifuged to separate serum to be used for analyzing the indicated biomarkers. Blood samples were collected according to Table 8.
The individual blood samples of the animals were left at room temperature for at least 5 minutes to coagulate and then centrifuged at 13200×g, 4° C. for 3 minutes to obtain serum. The serum was divided into separate labeled microtubes and stored at −80° C. until analysis.
Serum HBeAg concentration was determined by SRL, Inc. based on a Chemiluminescent Enzyme Immuno Assay (CLEIA) developed by Fujirebio ([…] HBeAg, […]® Prestoll). The dilution factor was 30 and 10, and the measurement range of this assay was between 0.1 and 1590 C.O.I. For the 30-fold diluted samples, the measurement range was adjusted to be between 3 and 47700 C.O.I. And for the 10-fold diluted samples, the measurement range was adjusted to be between 1 and 15900 C.O.I. The lowest quantification limit of this assay was 3.0 C.O.I.

[2] = XTT cell toxicity in primary human hepatocytes; type: cell-based; details: human, primary human hepatocytes, read-out: TC50
Method: (§1) Multiplicity of Infection (MOI) is defined as the number of HBV genome equivalents, as determined by the qPCR quantitation, added per cell in the respective growth format. The overnight media was removed from the cells and replaced with 190 μL of new, serum-free HI media/4% PEG8000 and 10 μL of the diluted virus stock (HepG2 AD38 genotype D) for a MOI of 500. Medium alone was added to the cells containing compound for the parallel cytotoxicity evaluation. After 18 hours of virus infection, the cells were gently washed five times with DPBS, followed by a new addition of 200 μL HI media containing compounds on day 1, day 4 and day 7 post-infection. In one set of experiments (Study #01), the effect of giving compound 18 h prior to infection, versus 18 h post-infection was studied. The supernatant removed from the cytotoxicity plates at each medium change was stored at −20° C. for shipment to the client. The supernatant was collected at 10 days post infection and stored at −20° C. for total extracellular HBV DNA copy number to be quantitatively determined by qPCR. Cell viability was measured by XTT tetrazolium dye at day 10 for the cytotoxicity plates.
(§2) Following incubation at 37° C. in a 5% CO2 incubator for ten days, the test plates were stained with the tetrazolium dye XTT (2,3-bis(2-methoxy-4-nitro-5-sulfophenyl}-5-[(phenylamino)carbonyl]-2H-tetrazolium hydroxide). XTT-tetrazolium was metabolized by the mitochondrial enzymes of metabolically active cells to a soluble formazan product. XTT solution was prepared daily as a stock of 1 mg/mL in RPMI1640. Phenazine methosulfate (PMS) solution was prepared at 0.15 mg/mL in PBS and stored in the dark at −20° C.
(§3) XTT/PMS stock was prepared immediately before use by adding 40 μL of PMS per mL of XTT solution. Fifty microliters of XTT/PMS were added to each well of the plate and the plate was re-incubated for 4 hours at 37° C. Plates were sealed with adhesive plate sealers and shaken gently or inverted several times to mix the soluble formazan product and the plate was read spectrophotometrically at 450/650 nm with a Molecular Devices Vmax plate reader.
(§4) Each concentration of inhibitor and controls were analyzed in triplicate for HBV DNA copies and for cellular toxicity, respectively. From control wells without inhibitor, the mean of these three replicates was calculated and the HBV DNA mean was set to 100% viral control and the XTT mean was set to 100% cell viability. The effect of compound was then expressed as % of viral control and % cell viability, respectively.

[3] = test system: Primary Human Hepatocytes; experiment: XTT cell toxicity in primary human hepatocytes; type: cell-based
Method: as §1, §2, §3, §4

## CCCCC1CN(c2ccccc2)c2cc(SC)c(O/C=C(\F)C(=O)O)cc2S(=O)(=O)N1C (stereo not drawn) [Compound 1, (Z)-3-((3-butyl-2-methyl-7-(methylthio)-1,1-dioxido-5-phenyl-2,3,4,5-tetrahydro-1,2,5-benzothiadiazepin-8-yl)oxy)-2-fluoroacrylic acid]
[1]
  serum HBeAg compared to controls: lower
[2]; Study #01, XTT, PHH
  CC50 at 10 days: > 1000 nM
[2]; Study #02
  CC50 at 10 days: > 200 nM
[2]; Study #03
  CC50 at 10 days: > 50 nM
[3]; Study #01, 18 h post-infection section
  TC50: >1000 nM
[3]; any concentration tested (up to 100 μmol/L)
  effect on cell viability: did not affect cell viability
